In brackets after ≈: the same amount, converted by molar mass. Read-outs that look alike come from different tables or passages of the source.
Columns and labels:
C. perfringens = C. perfringens clinical isolates, agar dilution; cited from earlier work
C. difficile [1] = conditions: C. difficile clinical isolates, agar dilution; cited from earlier work
[2] = Multiple ascending dose Phase 1b study, safety and pharmacokinetics in healthy adults; type: in vivo, human; conditions: for half-life / Tmax: both sexes, human, plasma, oral
Procedure: The study was performed at Quintiles Phase I Services in Overland Park, KS. […] The secondary objective was to determine the plasma pharmacokinetic characteristics of CRS3123 after multiple oral doses. An exploratory endpoint was the evaluation of the effect of CRS3123 on fecal microbiome.

C. difficile [3] = conditions: cited from earlier work
[4] = Single ascending dose Phase 1a study, safety and pharmacokinetics in healthy adults
[5] = single dose, all TEAEs, combined
[6] = single dose, related to CRS3123 treatment, combined

O=c1cc(NCCCN[C@@H]2CCOc3c(Br)cc(Br)cc32)[nH]c2ccsc12 [CRS3123]
MIC90 (C. perfringens): 0.25 µg/mL (≈ 0.487 µM)
MIC90 (C. difficile [1]): 1.0 µg/mL (≈ 1.95 µM)
dose proportionality of exposure (Cmax, AUC0-12 Day 1; Cmax,ss, AUC0-τ Day 10) ([2]; 200-600 mg BID): less than proportional to the increase in dose
half-life ([2]; following a single dose, across 3 dose groups, read-out: geometric mean t1/2): 3.01 to 3.53 h
half-life ([2]; following 10 days of twice daily administration, across 3 dose groups, read-out: geometric mean t1/2,ss): 4.71 to 6.32 h
Tmax ([2]; following 10 days of twice daily administration, across 3 dose groups, read-out: median Tmax,ss): 1 to 2 h
Tmax ([2]; following a single dose, across 3 dose groups (200, 400, 600 mg), read-out: median Tmax): 2 to 3 h
QTcF interval ([2]; multiple ascending dose): no prolongation
overall safety and tolerability ([2]; multiple ascending dose, 200-600 mg BID, 10 days): generally safe and well tolerated
accumulation ([2]; multiple twice daily dosing for 10 days): minimal accumulation
fate of unchanged drug ([2]; single and multiple dose): retained in the GI tract and excreted in feces
activity in hamster model of C. difficile infection (C. difficile [3]): active
deaths, SAEs, severe or life-threatening TEAEs ([4]; single dose): no deaths, SAEs, or severe or life-threatening TEAEs
moderate TEAEs ([4]; single dose): 7.4%
overall safety and tolerability ([4]; single dose study): safe and well-tolerated
subjects reporting treatment-emergent adverse events (TEAEs) ([4]; single dose, CRS3123-treated subjects combined): 93.3%
TEAE frequency: abnormal urine analysis [4, 5]: 20.0%
TEAE frequency: decreased hemoglobin [4, 5]: 23.3%
TEAE frequency: headache [4, 5]: 20.0%
TEAE frequency: positive urine leukocyte esterase [4, 5]: 16.7%
treatment-related TEAE: abnormal urine analysis [4, 6]: 16.7%
treatment-related TEAE: decreased blood calcium [4, 6]: 13.3%
treatment-related TEAE: decreased hemoglobin [4, 6]: 16.7%
treatment-related TEAE: headache [4, 6]: 20.0%
dose proportionality of systemic exposure ([4]; single oral dose 100-1200 mg): did not appear to be dose-proportional
fraction absorbed ([4]; single oral dose 100-1200 mg, healthy fasted subjects): low but detectable fraction
metabolism ([4]; single oral dose, mass spectral analysis): metabolized in the body via glucuronidation

Source: patent US20240000756A1, “METHODS AND COMPOUNDS FOR TREATMENT OF AUTISM SPECTRUM DISORDER” (Crestone, Inc., priority 2020, published 2024)
